Ends that are not written are not given here.

For this assay, the system named is NF-kB. Briefly: NF-kB translocation by EMSA on nuclear extracts of RAW 264.7 mouse macrophages, basal and LPS induced (second experiment). The class given is cell-based. To be noted: RAW264.7 cells, LPS in combination with peptide, 30 minutes of incubation, peptide 1 microgr/ml or 1 mg/ml. The procedure: RAW 264.7 mouse macrophages were cultured in DMEM, containing 10% or 2% FBS, penicillin, streptomycin and glutamine, at 37 °C, 5% CO2. […] After 30 minutes of incubation plates were centrifuged and cells were collected for nuclear extracts. Nuclear extracts and EMSA were prepared according to Schreiber et al. Cells were collected in a tube and centrifuged for 5 minutes at 2000 rpm (rounds per minute) at 4°C (Universal 30 RF, Hettich Zentrifuges). The pellet was washed with ice-cold Tris buffered saline (TBS pH 7.4) and resuspended in 400 μl of a hypotonic buffer A (10 mM HEPES pH 7.9, 10 mM KCl, 0.1 mM EDTA, 0.1 mM EGTA, 1 mM DTT, 0.5 mM PMSF and protease inhibitor cocktail (Complete^TM Mini, Roche) and left on ice for 15 minutes. Twenty five micro litre 10% NP-40 was added and the sample was centrifuged (2 minutes, 4000 rpm, 4°C). The supernatant (cytoplasmic fraction) was collected and stored at -70°C. […] The samples were left to shake at 4°C for at least 60 minutes. Finally the samples were centrifuged and the supernatant (nucleic fraction) was stored at -70°C. Bradford reagent (Sigma) was used to determine the final protein concentration in the extracts. […] Hundred pico mol sense and antisense oligo were annealed and labelled with […] using T4 polynucleotide kinase according to the manufacture's instructions (Promega, Madison, WI). […]
A general note: Mobility shift assays separate free from complexed probe on a gel.

With “circular LQGVLPALPQVVC (also: circular / cyclised, mode of ring closure not given here) [NFkappaB down-regulating peptide]”, the “LPS induced translocation of NF-kB” value was “inhibition”.

The record behind these values is patent EP1466611A1, “Use of HCG derived peptides in the treatment of iatrogenic diseases” (Biotempt B.V., priority 2003, dated 2004).
